Measured values: patent publication US12358943B1, “Method of synthesizing testosterone-based thiazolidinone derivatives” (IMAM MOHAMMAD IBN SAUD ISLAMIC UNIVERSITY, priority 2025, dated 2025)

Tests used:
Type in all cases: cell-based
[1] = tested on: Staphylococcus aureus ATCC 6538-P; assay: Disk diffusion agar antimicrobial activity, S. aureus; conditions: 25 mg/ml, 37° C. for 24 hours, mean values; for zone of inhibition at 25000 µg/mL: Staphylococcus aureus, ATCC6538, 24 h, read-out: Bacterial and fungal growth inhibition zone diameter (mm), S. aureus
Method: (§1) As used herein, “inhibition zone diameter” refers to a measurement that indicates how effective an antimicrobial is against a bacterium. The diameter of the zone of inhibition can be used to determine the level of sensitivity of the bacterium to the antimicrobial. In laboratory testing, such as the disk diffusion method (Kirby-Bauer test), a paper disk impregnated with the antimicrobial agent is placed on an agar plate inoculated with the microorganism. After incubation, the diameter of the clear zone (inhibition zone) around the disk is measured.
(§2) The reaction conditions and mechanisms are described in subsequent examples. The successful fabrication of the testosterone-based thiazolidinone derivatives was confirmed by different analytical techniques. The antimicrobial activity of newly prepared testosterone-based thiazolidinone derivatives was evaluated against various microorganisms, including Staphylococcus aureus ATCC 6538-P, Escherichia coli ATCC 25933, Candida albicans ATCC 10231, and Aspergillus niger NRRL-A326.
(§3) The antimicrobial activity of the synthesized testosterone-based thiazolidinone derivatives (compound (I), compound (II), and compound (III)) were assessed utilizing the disk diffusion agar methodology. Four representative microbial strains were selected for this study: Staphylococcus aureus ATCC 6538-P (Gram-positive), Escherichia coli ATCC 25933 (Gram-negative), Candida albicans ATCC 10231, and Aspergillus niger NRRL-A326. Nutrient agar plates were uniformly inoculated with 0.1 mL of a cell suspension at a density of […] to 10^6 cells/mL for both bacterial and yeast cultures. Following inoculation, samples were introduced onto the agar plates. The plates were subsequently incubated at refrigeration temperature (4° C.) for 2 to 4 hours to enhance the diffusion of the antimicrobial agents. Thereafter, the plates were incubated at 37° C. for 24 hours for bacterial growth and at 30° C. for 48 hours for yeast and fungal growth, maintaining an upright orientation to maximize the growth of the microorganisms. The antimicrobial activity of the testosterone-based thiazolidinone derivatives was quantified by measuring the diameter of the zone of inhibition, which was reported in millimeters (mm). The concentration of the tested testosterone-based thiazolidinone derivatives was 25 mg/ml. This experimental protocol was replicated multiple times, and the mean values of the observed readings were recorded.

[2] = tested on: Escherichia coli ATCC 25933; assay: Disk diffusion agar antimicrobial activity, E. coli; conditions: 25 mg/ml, 37° C. for 24 hours, mean values; for zone of inhibition at 25000 µg/mL: Escherichia coli, ATCC25933, 24 h, read-out: Bacterial and fungal growth inhibition zone diameter (mm), E. coli
Method: as §1, §2, §3

[3] = tested on: Candida albicans ATCC 10231; assay: Disk diffusion agar antimicrobial activity, C. albicans; conditions: 25 mg/ml, 30° C. for 48 hours, mean values; for zone of inhibition at 25000 µg/mL: Candida albicans, ATCC10231, 48 h, read-out: Bacterial and fungal growth inhibition zone diameter (mm), C. albicans
Method: as §1, §2, §3

[4] = tested on: Aspergillus niger NRRL-A326; assay: Disk diffusion agar antimicrobial activity, A. niger; conditions: 30° C. for 48 hours, mean values; for Bacterial and fungal growth inhibition zone diameter (mm), A. niger: 25 mg/ml; for zone of inhibition at 25000 µg/mL: Aspergillus niger, NRRLA326, 25 mg/ml, read-out: Bacterial and fungal growth inhibition zone diameter (mm), A. niger
Method: as §1, §2, §3

[5] = listed as compound III where Ar is 4-ClC6H4
[6] = listed as compound III where Ar is C6H5
[7] = listed as compound III where Ar is CH2C6H4

In the case of `CC12CCC(=NN=C3NC(=O)C(CC(=O)Nc4ccc(Cl)cc4)S3)C=C1CCC1C2CCC2(C)C(O)CCC12` (centres unmarked) [Compound III Ar = 4-ClC6H4], the “Bacterial and fungal growth inhibition zone diameter (mm), S. aureus” value [1] was 38 mm, the “Bacterial and fungal growth inhibition zone diameter (mm), S. aureus” value [1, 5] was “at least 38 mm” and the “Bacterial and fungal growth inhibition zone diameter (mm), E. coli” value [2] was 39 mm. For the same compound, the “Bacterial and fungal growth inhibition zone diameter (mm), E. coli” value [2, 5] was “at least 39 mm”, the “Bacterial and fungal growth inhibition zone diameter (mm), C. albicans” value [3] was 41 mm and the “Bacterial and fungal growth inhibition zone diameter (mm), C. albicans” value [3, 5] was “at least 41 mm”. For the same compound, the “Bacterial and fungal growth inhibition zone diameter (mm), A. niger” value [4] was 43 mm and the “Bacterial and fungal growth inhibition zone diameter (mm), A. niger” value [4, 5] was “at least 43 mm”.

For `CC12CCC(=NN=C3NC(=O)C(CC(=O)Nc4ccccc4)S3)C=C1CCC1C2CCC2(C)C(O)CCC12` (centres unmarked) [Compound III Ar = C6H5], the “Bacterial and fungal growth inhibition zone diameter (mm), S. aureus” value [1] was 35 mm, the “Bacterial and fungal growth inhibition zone diameter (mm), S. aureus” value [1, 6] was “at least 35 mm” and the “Bacterial and fungal growth inhibition zone diameter (mm), E. coli” value [2] was 32 mm. For the same compound, the “Bacterial and fungal growth inhibition zone diameter (mm), E. coli” value [2, 6] was “at least 32 mm”, the “Bacterial and fungal growth inhibition zone diameter (mm), C. albicans” value [3] was 36 mm and the “Bacterial and fungal growth inhibition zone diameter (mm), C. albicans” value [3, 6] was “at least 36 mm”. For the same compound, the “Bacterial and fungal growth inhibition zone diameter (mm), A. niger” value [4] was 37 mm and the “Bacterial and fungal growth inhibition zone diameter (mm), A. niger” value [4, 6] was “at least 37 mm”.

With `CC12CCC(=NN=C3NC(=O)C(CC(=O)NCc4ccccc4)S3)C=C1CCC1C2CCC2(C)C(O)CCC12` (centres unmarked) [Compound III Ar = CH2C6H4] the “Bacterial and fungal growth inhibition zone diameter (mm), S. aureus” value [1] was 19 mm, the “Bacterial and fungal growth inhibition zone diameter (mm), S. aureus” value [1, 7] was “at least 19 mm” and the “Bacterial and fungal growth inhibition zone diameter (mm), E. coli” value [2] was 17 mm. For the same compound, the “Bacterial and fungal growth inhibition zone diameter (mm), E. coli” value [2, 7] was “at least 17 mm”, the “Bacterial and fungal growth inhibition zone diameter (mm), C. albicans” value [3] was 21 mm and the “Bacterial and fungal growth inhibition zone diameter (mm), C. albicans” value [3, 7] was “at least 21 mm”. The “Bacterial and fungal growth inhibition zone diameter (mm), A. niger” value [4] was 44 mm and the “Bacterial and fungal growth inhibition zone diameter (mm), A. niger” value [4, 7] was “at least 44 mm”.

For `COC(=O)/C=C1/S/C(=N\N=C2\C=C3CC[C@H]4[C@@H]5CC[C@H](O)[C@@]5(C)CC[C@@H]4[C@@]3(C)CC2)NC1=O` [Compound II], the “Bacterial and fungal growth inhibition zone diameter (mm), S. aureus” value [1] was 29 mm, the zone of inhibition at 25000 µg/mL [1] was ≥ 29 mm and the “Bacterial and fungal growth inhibition zone diameter (mm), E. coli” value [2] was 26 mm. For the same compound, the zone of inhibition at 25000 µg/mL [2] was ≥ 26 mm, the “Bacterial and fungal growth inhibition zone diameter (mm), C. albicans” value [3] was 29 mm and the zone of inhibition at 25000 µg/mL [3] was ≥ 29 mm. It also gave a zone of inhibition at 25000 µg/mL [4] of 0 mm.

With `C[C@]12CC[C@H]3[C@@H](CCC4=C/C(=N/NC(N)=S)CC[C@@]43C)[C@@H]1CC[C@@H]2O` [Compound I] the zone of inhibition at 25000 µg/mL [1] was 0 mm, the zone of inhibition at 25000 µg/mL [2] was 0 mm and the zone of inhibition at 25000 µg/mL [3] was 0 mm. It also gave a zone of inhibition at 25000 µg/mL [4] of 0 mm.
